Where two headings read alike, the source gives them in different places.
Biological target: T1, purified human GBA1 (Homo sapiens, UniProt P04062)
T1 construct: purchased R&D Systems 7410-GH-10; host or cells: alternatively made in house: baculovirus (pFastBac-1), expressed in SF-9 or SF-21 cells, purified from conditioned media
T1 sequence (P04062 40-536): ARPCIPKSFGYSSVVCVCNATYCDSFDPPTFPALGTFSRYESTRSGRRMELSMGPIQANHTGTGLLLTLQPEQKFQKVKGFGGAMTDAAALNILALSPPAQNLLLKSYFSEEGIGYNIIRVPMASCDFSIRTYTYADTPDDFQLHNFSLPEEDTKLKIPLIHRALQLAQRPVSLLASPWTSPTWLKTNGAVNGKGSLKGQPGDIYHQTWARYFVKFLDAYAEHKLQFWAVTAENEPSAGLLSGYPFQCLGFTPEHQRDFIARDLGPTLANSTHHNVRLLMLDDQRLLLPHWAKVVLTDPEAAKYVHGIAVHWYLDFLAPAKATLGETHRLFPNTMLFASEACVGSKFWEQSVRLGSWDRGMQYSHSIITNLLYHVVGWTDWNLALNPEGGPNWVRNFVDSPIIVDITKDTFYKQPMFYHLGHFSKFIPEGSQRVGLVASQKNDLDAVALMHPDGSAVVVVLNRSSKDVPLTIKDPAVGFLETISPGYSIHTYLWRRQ
Assay: GBA1 enzymatic cell-free assay, turnover of 4MUG
Type: biochemical
Description: After incubation, 100 μl of assay buffer was added to the plate. The assay buffer was composed of 0.1 M citric acid and 0.2 M sodium phosphate dibasic adjusted to pH = 5.4 unless stated otherwise (McIlvaine Buffer). […] For IC50 and EC50 experiments using compounds an assay buffer of pH 5.4 was used.
The substrate, 4-methylumbelliferyl β-D-glucopyranoside (4MUG, Sigma, M3633) was then added to the plate to a final concentration of 1.7 mM (25 μl). 4MUG was freshly solubilized in water at 37°C prior to each experiment. The recombinant protein, compound, assay buffer, and substrate were incubated at 37°C for 30 minutes.
The specific activity was calculated off the 4MU standard curve by converting the relative fluorescence units (RFUs) to the concentration of the fluorescent product (GraphPad Prism 5.1). This interpolated value was then used to calculate the specific activity of the recombinant protein which was expressed as nmol/hr/ng protein for recombinant protein and nmol/hr/mg for tissue lysates (GBA1 tissue assay). The standard curve was always diluted in the same assay buffer as the samples, including the same pH. For experiments testing activity of GBA1 at different pH, a standard curve for each pH condition was used to calculate specific activity. When testing different pH conditions, buffer solutions were adjusted to obtain the desired pH using the McIlvaine’s Buffer recipe, and the pH of the buffer was verified. All assay buffers used in the pH experiments contained sodium taurocholate to a final concentration of 3.1 mM.
In experiments directly comparing enzymatic activities of GBA1, GBA2 and GBA3 (S1 Fig., S2 Fig. c, d) the following conditions were used. […] A 10-fold intermediate solution of compound serial dilution was prepared in an assay buffer; half log dilutions were used. […] 2 mM solution of 4MUG was prepared in an assay buffer. To start the reaction, 4.5 μl/well of this solution was added to the enzyme plate and was incubated for 30 minutes at 37°C. To stop the reaction, a 1M glycine solution, adjusted to pH = 10 using 1M NaOH was used. […] To test the effect of sodium taurocholate (Sigma, T4009), the assay was performed using the same procedure described in this paragraph. The assay buffer contained either 0mM (same as above), 3 mM, 7 mM or 20 mM Sodium Taurocholate.

SMILES	inhibition of GBA1 activity (1 mM)	inhibition at 1 µM (read-out: inhibition of GBA1 activity) [%]	inhibition at 1 µM (with sodium taurocholate, read-out: GBA1 % inhibition + NaTc) [%]	inhibition at 1 µM (without sodium taurocholate, read-out: GBA1 % inhibition - NaTc) [%]
O[C@H]1[C@H](O)[C@@H](O)[C@@H]2O[C@@H]2[C@@H]1O [CBE]	more than 90%	–	–	–
OC[C@H]1CNC[C@@H](O)[C@@H]1O [Isofagomine, isofagomine]	–	> 90	95.9 ± 3.2	92.1 ± 2.3

From publication PMC4357465, “Tool Compounds Robustly Increase Turnover of an Artificial Substrate by Glucocerebrosidase in Human Brain Lysates” (PLoS ONE, 2015)
